Laboratory results: patent US8476197B2, “Aminopropenoates as fungicides” (priority 2009, dated 2013)
Marks after values point to notes of the source that are not given here.

Conditions: pH 2.3

SMILES	Log P
C=CCOc1ncccc1C(NC(C)c1nccs1)=C(C#N)C(=O)OCC (racemic) [Compound 1506]	2.03^[c]; 2.03^[b]
CCOC(=O)C(C#N)=C(NC(C)c1nccs1)c1cccnc1F (stereo not drawn) [Compound 79]	2.47
CCCNC(=O)C(C#N)=C(NC(C)C(C)C)c1cccnc1Cl (stereo not drawn) [Compound 988]	3.24
COC(=O)C(C#N)=C(NC1CCSC1)c1cccnc1Cl (stereo not drawn) [Compound 22]	2.4

Same assay, conditions: pH 2.7

SMILES	Log P
CCOC(=O)C(C#N)=C(NCc1nccs1)c1ncc(C(F)(F)F)cc1Cl [Compound 75]	2.84^[a]
CCCCCC(C)NC(=C(C#N)C(=O)OCC)c1sc(C)nc1C(F)(F)F (racemic) [Compound 858]	4.81^[a]
CCOC(=O)C(C#N)=C(NC(C)c1ccc(Cl)cc1)c1sccc1C(F)(F)F (stereo not drawn) [Compound 368]	4.47^[a]
COC(=O)C(C#N)=C(NC(C)CN)c1cn(C)nc1C(F)F (racemic) [Compound 591]	0.58^[a]
CCOC(=O)C(C#N)=C(Nc1ccc(Cl)cc1)c1ccsc1Br [Compound 534]	4.11^[a]
CCOC(=O)C(C#N)=C(NC(C)C(=O)NC)c1ccnc(Cl)c1Cl (stereo not drawn) [Compound 1387]	2.1^[a]
CCOC(=O)C(C#N)=C(NC(C)c1nc(C)cs1)c1sc(C)nc1C(F)(F)F (stereo not drawn) [Compound 194]	3.42^[a]
CCOC(=O)C(C#N)=C(Nc1ccc2ncsc2c1)c1sc(C)nc1C(F)(F)F [Compound 479]	2.98^[a]
CCOC(=O)C(C#N)=C(NCc1nc(C)cs1)c1ccsc1Br [Compound 246]	2.94^[a]
CCOC(=O)C(C#N)=C(NC(C)(C)C#Cc1ccc(C)cc1)c1cn(C)nc1C(F)F [Compound 1097]	4.11^[a]
CCOC(=O)C(C#N)=C(NC1(c2ccccn2)CC1)c1cccnc1Cl [Compound 284]	2.56^[a]
CCOC(=O)C(C#N)=C(NC1CC1C1CC1)c1cccnc1Cl (stereo not drawn) [Compound 1634]	3.13^[a]
CCOC(=O)C(C#N)=C(NC(C)C(C)OC)c1cc(Cl)sc1Cl (stereo not drawn) [Compound 1603]	4.02^[a]
COC(=O)C(C#N)=C(NC(C)c1ccc2c(c1)OCO2)c1cccnc1Cl (stereo not drawn) [Compound 402]	2.53^[a]
CCOC(=O)C(C#N)=C(NCc1ncccc1Cl)c1cccnc1Cl [Compound 1412]	2.78^[a]
CCOC(=O)C(C#N)=C(NC(C#N)c1cccc(Cl)c1Cl)c1cccnc1Cl (racemic) [Compound 1257]	3.69^[a]
CCCCCC(C)NC(=C(C#N)C(=O)OC)c1sc(C)nc1C(F)(F)F (racemic) [Compound 852]	4.41^[a]
COC(=O)C(C#N)=C(NC1(C)CCCCC1)c1cccnc1Cl [Compound 1009]	3.13^[a]
CCOC(=O)C(C#N)=C(Nc1cccc(Cl)c1)c1sccc1C(F)(F)F [Compound 511]	4.14
C=CCSc1ccccc1NC(=C(C#N)C(=O)OCC)c1cc(C)oc1C [Compound 420]	4.25^[a]
CCOC(=O)C(C#N)=C(NC(C)c1ccccn1)c1ccnc(Cl)c1F (stereo not drawn) [Compound 1312]	3^[a]
C=CCOC(=O)C(C#N)=C(NC(C)c1ccccn1)c1cn(C)nc1C(F)F (mixture of isomers) [Compound 307]	2.56^[a]

SMILES	Log P
CCOC(=O)C(C#N)=C(Nc1ccc(OC(F)F)cc1)c1sccc1Br [Compound 468]	3.73^[a]
CCOC(=O)C(C#N)=C(NC(C)(C)C#Cc1ccc(C#N)cc1)c1sccc1C(F)(F)F [Compound 1091]	4.24^[a]
COC(=O)CC(C)NC(=C(C#N)C(=O)OC)c1cccnc1Cl (stereo not drawn) [Compound 620]	2.11^[a]
CCOC(=O)C(C#N)=C(NC(C)CC)c1ncc(Cl)cc1Cl (racemic) [Compound 839]	3.78^[a]
CCOC(=O)C(C#N)=C(NC(C)C1(Cl)CC1)c1sccc1C(F)(F)F (stereo not drawn) [Compound 769]	4.04^[a]
CCOC(=O)C(C#N)=C(NC(C)C(C)C)c1nc(Cl)ccc1Cl (stereo not drawn) [Compound 966]	4.06^[a]
CCOC(=O)C(C#N)=C(NCc1ccc(Cl)cc1)c1cn(C)nc1C(F)F [Compound 555]	3.31^[a]
CCOC(=O)C(C#N)=C(NC(c1ccccc1)C(F)(F)F)c1cn(C)nc1C(F)F (stereo not drawn) [Compound 1224]	3.55^[a]
CCOC(=O)C(C#N)=C(NC(C)c1ccccc1)c1sc(C)nc1C(F)(F)F (mixture of isomers) [Compound 452]	3.99^[a]
CCOC(=O)C(C#N)=C(NC(C)C(=O)OCC)c1cccnc1Cl (stereo not drawn) [Compound 1194]	2.82^[a]
CCOC(=O)C(C#N)=C(Nc1ccc(OC(F)F)cc1)c1ccsc1Br [Compound 532]	3.73^[a]
CCOC(=O)C(C#N)=C(NC(C)(C)CSC)c1sccc1C(F)(F)F [Compound 700]	3.8^[a]
CCC(NC(=C(C#N)C(=O)OC)c1cccnc1Cl)c1ccccc1 (stereo not drawn) [Compound 405]	3.02^[a]
CCOC(=O)C(C#N)=C(Nc1cccc(Cl)c1)c1ccsc1Br [Compound 539]	4.09^[a]
CCOC(=O)C(C#N)=C(NCC#N)c1cn(C)nc1C(F)F [Compound 788]	1.79^[a]
CCOC(=O)C(C#N)=C(NC(C#N)CC)c1cn(C)nc1C(F)F (racemic) [Compound 1251]	2.45^[a]
CCOC(=O)C(C#N)=C(NCC(C)c1ccccc1Br)c1cccnc1Cl (stereo not drawn) [Compound 1378]	3.94^[a]
CCNC(=O)C(C#N)=C(NC(C)C(C)C)c1ccnc(Cl)c1Br (stereo not drawn) [Compound 1408]	3.53^[a]
COC(=O)C(C#N)=C(NC(C)(C)CF)c1cccnc1Cl [Compound 744]	2.31^[a]
CCOC(=O)C(C#N)=C(NC(C)Cc1ccncc1)c1cccnc1Cl (stereo not drawn) [Compound 320]	1.64^[a]
C=CCOC(=O)C(C#N)=C(NC(C)C(C)C)c1sccc1Br (stereo not drawn) [Compound 962]	4.34^[a]
COC(=O)C(C#N)=C(NC(C)C(C)C)c1cn(C)nc1C(F)F (stereo not drawn) [Compound 938]	2.8^[a]

Same assay, conditions: pH 7.5

SMILES	Log P
CC(NC(=C(C#N)C(=O)OC(C)(C)C)c1cccnc1Cl)c1nccs1 (stereo not drawn) [Compound 25]	3.07
CCOC(=O)C(C#N)=C(NC(C)CSC)c1cccnc1Cl (stereo not drawn) [Compound 593]	2.71
C=CCOc1ncccc1C(NC(C)c1nccs1)=C(C#N)C(=O)OCC (racemic) [Compound 1506]	2.03^[c]; 2.03^[b]
CCOC(=O)C(C#N)=C(NC(C)c1nccs1)c1cccnc1F (stereo not drawn) [Compound 79]	2.32
CCCNC(=O)C(C#N)=C(NC(C)C(C)C)c1cccnc1Cl (stereo not drawn) [Compound 988]	3.22
CCOC(=O)C(C#N)=C(NC(C)C(C)C)c1cccnc1Cl (stereo not drawn) [Compound 934]	3.21
CCOC(=O)C(C#N)=C(NC(C)CC(C)C)c1cccnc1Cl (racemic) [Compound 778]	3.62
COC(=O)C(C#N)=C(NC1CCSC1)c1cccnc1Cl (stereo not drawn) [Compound 22]	2.23
COC(=O)C(C#N)=C(NC(C)CSC)c1cccnc1Cl (stereo not drawn) [Compound 575]	2.38
